Results published in patent US12577226B2, “Compounds for treating Huntington's disease” (PTC THERAPEUTICS, INC., priority 2019, dated 2026).

System: Endogenous Huntingtin Protein (capture with MW1 (expanded polyglutamine) or MAB2166 antibody)
Test: Endogenous Huntingtin Protein Assay (ELISA-based Meso Scale Discovery electrochemiluminescence assay)
Assay type: cell-based
Settings: MSD electrochemiluminescence platform
In short: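 MSD electrochemiluminescence sandwich immunoassay: plates coated with 1 μg/mL MW1 or MAB2166 capture antibody, samples incubated overnight at 4 °C. Detection with rabbit monoclonal #5656S then SULFO-TAG anti-rabbit (each 0.25 μg/mL, 1 h RT).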

| IC50 [µM] | Compound |
| --- | --- |
| ≤ 0.1 | Cn1nc2cc(-c3cnc(-c4cnc(N5CCN[C@@H](C6CC6)C5)nn4)c(O)c3)cnc2n1 [Compound 157, 2-{3-[(3S)-3-cyclopropylpiperazin-1-yl]-1,2,4-triazin-6-yl}-5-(2-methyl-2H-[1,2,3]triazolo[4,5-b]pyridin-6-yl)pyridin-3-ol] |
| 0.1 to 0.5 | Cc1ccc(Nc2cnc(-c3ccc(N4C[C@@H](C)N[C@@H](C)C4)nn3)c(O)c2)cn1 [Compound 125, 2-{6-[(3R,5S)-3,5-dimethylpiperazin-1-yl]pyridazin-3-yl}-5-[(6-methylpyridin-3-yl)amino]pyridin-3-ol] |
| 0.1 to 0.5 | Cc1nc2ccc(-c3cnc(-c4ccc(N5C[C@@H](C)N[C@@H](C)C5)nn4)c(O)c3)cn2n1 [Compound 99, 2-{6-[(3R,5S)-3,5-dimethylpiperazin-1-yl]pyridazin-3-yl}-5-(2-methyl[1,2,4]triazolo[1,5-a]pyridin-6-yl)pyridin-3-ol and 2-{6-[(3S,5R)-3,5-dimethylpiperazin-1-yl]pyridazin-3-yl}-5-(2-methyl[1,2,4]triazolo[1,5-a]pyridin-6-yl)pyridin-3-ol] |
| ≤ 0.1 | [2H]C([2H])([2H])n1cc(-c2cnc(-c3ccc(OC4CC(C)(C)NC5(CC5)C4)nn3)c(O)c2)cn1 (stereo not drawn) [Compound 75, 2-{6-[(5,5-dimethyl-4-azaspiro[2.5]octan-7-yl)oxy]pyridazin-3-yl}-5-[1-(^2H3)methyl-1H-pyrazol-4-yl]pyridin-3-ol] |
| ≤ 0.1 | CC(C)[C@H]1CN(c2ncc(-c3ncc(-c4cc(F)c5nn(C)cc5c4)cc3O)nn2)CCN1 [Compound 155, 5-(7-fluoro-2-methyl-2H-indazol-5-yl)-2-{3-[(3S)-3-(propan-2-yl)piperazin-1-yl]-1,2,4-triazin-6-yl}pyridin-3-ol] |
| ≤ 0.1 | 5-(8-ethyl-2-methylimidazo[1,2-b]pyridazin-6-yl)-2-(6-{[(3R,4S)-3-fluoro-2,2,6,6-tetramethylpiperidin-4-yl]oxy}pyridazin-3-yl)pyridin-3-ol and 5-(8-ethyl-2-methylimidazo[1,2-b]pyridazin-6-yl)-2-(6-{[(3S,4R)-3-fluoro-2,2,6,6-tetramethylpiperidin-4-yl]oxy}pyridazin-3-yl)pyridin-3-ol [Compound 60] |
| ≤ 0.1 | CC1CN(c2ccc(-c3ncc(-c4cc(F)c5nn(C)cc5c4)cc3O)nn2)CCN1 (stereo not drawn) [Compound 97, 5-(7-fluoro-2-methyl-2H-indazol-5-yl)-2-[6-(3-methylpiperazin-1-yl)pyridazin-3-yl]pyridin-3-ol] |
| 0.1 to 0.5 | Cn1cc2cc(-c3cnc(-c4ccc(N5CCN(C6CC6)CC5)nn4)c(O)c3)cc(F)c2n1 [Compound 100, 2-[6-(4-cyclopropylpiperazin-1-yl)pyridazin-3-yl]-5-(7-fluoro-2-methyl-2H-indazol-5-yl)pyridin-3-ol] |

The next lines start with the compound.

| Compound | IC50 [µM] |
| --- | --- |
| CN(c1ccc(-c2ncc(-c3ncco3)cc2O)nn1)C1CC(C)(C)NC(C)(C)C1 [Compound 14, 2-{6-[methyl(2,2,6,6-tetramethylpiperidin-4-yl)amino]pyridazin-3-yl}-5-(1,3-oxazol-2-yl)pyridin-3-ol] | ≤ 0.1 |
| 5-(2,4-dimethyl-1,3-benzoxazol-6-yl)-2-(6-{[(3R,4S)-3-fluoro-2,2,6,6-tetramethylpiperidin-4-yl]oxy}pyridazin-3-yl)pyridin-3-ol and 5-(2,4-dimethyl-1,3-benzoxazol-6-yl)-2-(6-{[(3S,4R)-3-fluoro-2,2,6,6-tetramethylpiperidin-4-yl]oxy}pyridazin-3-yl)pyridin-3-ol [Compound 56] | ≤ 0.1 |
| CN(c1ncc(-c2ncc(-c3cn[nH]c3F)cc2O)nn1)C1CC(C)(C)NC(C)(C)C1 [Compound 143, 5-(5-fluoro-1H-pyrazol-4-yl)-2-{3-[methyl(2,2,6,6-tetramethylpiperidin-4-yl)amino]-1,2,4-triazin-6-yl}pyridin-3-ol] | 0.1 to 0.5 |
| C[C@@H]1CN(c2ccc(-c3ncc(-c4ccc5c(cnn5C)c4)cc3O)nn2)C[C@H](C)N1 [Compound 126, 2-{6-[(3R,5S)-3,5-dimethylpiperazin-1-yl]pyridazin-3-yl}-5-(1-methyl-1H-indazol-5-yl)pyridin-3-ol and 2-{6-[(3S,5R)-3,5-dimethylpiperazin-1-yl]pyridazin-3-yl}-5-(1-methyl-1H-indazol-5-yl)pyridin-3-ol] | 0.1 to 0.5 |
| 2-(6-{[(3R,4S)-3-fluoro-2,2,6,6-tetramethylpiperidin-4-yl]oxy}pyridazin-3-yl)-5-(2-methyl[1,2,4]triazolo[1,5-a]pyridin-6-yl)pyridin-3-ol and 2-(6-{[(3S,4R)-3-fluoro-2,2,6,6-tetramethylpiperidin-4-yl]oxy}pyridazin-3-yl)-5-(2-methyl[1,2,4]triazolo[1,5-a]pyridin-6-yl)pyridin-3-ol [Compound 55] | ≤ 0.1 |
| CC1(C)C[C@H](Oc2ccc(-c3ncc(-c4cn[nH]c4)cc3O)nn2)[C@H](F)C(C)(C)N1[O] [Compound 102, [(3R,4S)-3-fluoro-4-({6-[3-hydroxy-5-(1H-pyrazol-4-yl)pyridin-2-yl]pyridazin-3-yl}oxy)-2,2,6,6-tetramethylpiperidin-1-yl]oxidanyl] | 0.5 to 1 |
| 2-(6-{[(3R,4S)-3-fluoro-2,2,6,6-tetramethylpiperidin-4-yl]oxy}pyridazin-3-yl)-5-(2-methylimidazo[1,2-a]pyrimidin-6-yl)pyridin-3-ol and 2-(6-{[(3S,4R)-3-fluoro-2,2,6,6-tetramethylpiperidin-4-yl]oxy}pyridazin-3-yl)-5-(2-methylimidazo[1,2-a]pyrimidin-6-yl)pyridin-3-ol [Compound 54] | ≤ 0.1 |
